Common to all, as to test: kinase profiling panel
Holding throughout (assay type): biochemical

In assay [1] the target is T1, MST2 (Homo sapiens, UniProt Q13188).
T1 sequence (Q13188 1-491): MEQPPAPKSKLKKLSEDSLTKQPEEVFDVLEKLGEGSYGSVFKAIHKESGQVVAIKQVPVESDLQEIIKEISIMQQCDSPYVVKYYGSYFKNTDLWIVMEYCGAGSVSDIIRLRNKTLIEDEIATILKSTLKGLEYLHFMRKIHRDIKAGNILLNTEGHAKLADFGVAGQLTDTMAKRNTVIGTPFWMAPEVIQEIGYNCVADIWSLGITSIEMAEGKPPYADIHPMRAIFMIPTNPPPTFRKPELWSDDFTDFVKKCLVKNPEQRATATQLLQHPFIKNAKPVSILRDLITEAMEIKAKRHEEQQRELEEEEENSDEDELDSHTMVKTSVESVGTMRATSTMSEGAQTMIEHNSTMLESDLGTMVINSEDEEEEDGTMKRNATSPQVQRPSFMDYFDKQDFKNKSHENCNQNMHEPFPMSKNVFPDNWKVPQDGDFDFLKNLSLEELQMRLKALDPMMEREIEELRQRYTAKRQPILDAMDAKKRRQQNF
Conditions: read-out: % Activity Remaining. From the text: (§1) Protein kinase profiling against a Dundee panel of 140 protein kinases was undertaken at the International Centre for Protein Kinase Profiling. The result for each kinase was presented as a mean kinase activity of the reaction taken in triplicate relative to a control sample treated with DMSO. Assay conditions and abbreviations are available at http://www.kinase-screen.mrc.ac.uk.

The target in assay [2] is SIK2 (Homo sapiens, UniProt Q9H0K1). Conditions: read-out: % Activity Remaining.
Chain of SIK2 (Q9H0K1 whole entry): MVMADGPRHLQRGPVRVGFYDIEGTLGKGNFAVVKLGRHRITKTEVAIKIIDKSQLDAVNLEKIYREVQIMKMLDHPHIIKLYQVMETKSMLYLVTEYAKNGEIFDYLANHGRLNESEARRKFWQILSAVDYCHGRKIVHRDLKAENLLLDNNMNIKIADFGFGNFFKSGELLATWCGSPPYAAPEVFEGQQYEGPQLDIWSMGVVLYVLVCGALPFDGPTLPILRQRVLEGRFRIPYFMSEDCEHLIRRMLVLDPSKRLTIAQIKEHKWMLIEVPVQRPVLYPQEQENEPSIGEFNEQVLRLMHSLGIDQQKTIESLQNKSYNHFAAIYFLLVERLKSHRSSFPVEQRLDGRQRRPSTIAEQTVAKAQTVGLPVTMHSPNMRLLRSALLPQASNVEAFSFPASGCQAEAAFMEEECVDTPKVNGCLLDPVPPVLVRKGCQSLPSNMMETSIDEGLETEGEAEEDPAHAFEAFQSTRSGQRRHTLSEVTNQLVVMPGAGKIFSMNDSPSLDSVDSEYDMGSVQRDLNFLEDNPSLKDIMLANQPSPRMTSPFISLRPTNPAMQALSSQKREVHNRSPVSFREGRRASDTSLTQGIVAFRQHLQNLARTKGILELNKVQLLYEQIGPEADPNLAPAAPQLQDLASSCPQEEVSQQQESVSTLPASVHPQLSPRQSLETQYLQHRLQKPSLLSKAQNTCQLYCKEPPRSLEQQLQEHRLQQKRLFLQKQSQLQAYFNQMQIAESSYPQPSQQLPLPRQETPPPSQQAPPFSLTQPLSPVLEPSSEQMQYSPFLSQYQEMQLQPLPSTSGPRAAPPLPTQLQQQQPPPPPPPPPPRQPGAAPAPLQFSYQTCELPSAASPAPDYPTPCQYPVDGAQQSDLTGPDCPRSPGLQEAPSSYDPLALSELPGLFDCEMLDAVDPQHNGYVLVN
From the text: as §1

Assay [3] addresses T2, MARK4 (Homo sapiens, UniProt Q96L34).
T2 sequence (Q96L34 1-752): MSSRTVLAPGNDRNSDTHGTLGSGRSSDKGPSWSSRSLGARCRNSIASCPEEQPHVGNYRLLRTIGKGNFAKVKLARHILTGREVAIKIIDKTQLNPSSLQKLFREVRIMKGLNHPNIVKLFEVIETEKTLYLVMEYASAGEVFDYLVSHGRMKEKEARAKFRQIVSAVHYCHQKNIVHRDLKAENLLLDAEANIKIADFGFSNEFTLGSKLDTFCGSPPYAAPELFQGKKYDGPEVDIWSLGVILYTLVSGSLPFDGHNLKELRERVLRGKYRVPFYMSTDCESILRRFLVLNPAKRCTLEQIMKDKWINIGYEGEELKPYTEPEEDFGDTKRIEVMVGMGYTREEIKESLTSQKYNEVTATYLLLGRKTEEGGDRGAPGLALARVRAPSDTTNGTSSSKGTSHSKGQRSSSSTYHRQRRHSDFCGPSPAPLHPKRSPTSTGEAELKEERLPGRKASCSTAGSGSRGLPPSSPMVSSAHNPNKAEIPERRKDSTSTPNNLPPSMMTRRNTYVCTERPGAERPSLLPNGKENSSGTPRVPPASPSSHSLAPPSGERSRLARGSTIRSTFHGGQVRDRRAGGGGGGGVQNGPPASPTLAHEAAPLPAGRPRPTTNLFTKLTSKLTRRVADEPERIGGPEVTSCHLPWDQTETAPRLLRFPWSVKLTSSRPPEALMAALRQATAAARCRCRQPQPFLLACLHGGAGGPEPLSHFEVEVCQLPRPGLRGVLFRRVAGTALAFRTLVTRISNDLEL
Conditions: read-out: % Activity Remaining.
From the text: as §1

The target in assay [4] is T3, EPH-B4 (Homo sapiens, UniProt P54760).
T3 sequence (P54760 16-987): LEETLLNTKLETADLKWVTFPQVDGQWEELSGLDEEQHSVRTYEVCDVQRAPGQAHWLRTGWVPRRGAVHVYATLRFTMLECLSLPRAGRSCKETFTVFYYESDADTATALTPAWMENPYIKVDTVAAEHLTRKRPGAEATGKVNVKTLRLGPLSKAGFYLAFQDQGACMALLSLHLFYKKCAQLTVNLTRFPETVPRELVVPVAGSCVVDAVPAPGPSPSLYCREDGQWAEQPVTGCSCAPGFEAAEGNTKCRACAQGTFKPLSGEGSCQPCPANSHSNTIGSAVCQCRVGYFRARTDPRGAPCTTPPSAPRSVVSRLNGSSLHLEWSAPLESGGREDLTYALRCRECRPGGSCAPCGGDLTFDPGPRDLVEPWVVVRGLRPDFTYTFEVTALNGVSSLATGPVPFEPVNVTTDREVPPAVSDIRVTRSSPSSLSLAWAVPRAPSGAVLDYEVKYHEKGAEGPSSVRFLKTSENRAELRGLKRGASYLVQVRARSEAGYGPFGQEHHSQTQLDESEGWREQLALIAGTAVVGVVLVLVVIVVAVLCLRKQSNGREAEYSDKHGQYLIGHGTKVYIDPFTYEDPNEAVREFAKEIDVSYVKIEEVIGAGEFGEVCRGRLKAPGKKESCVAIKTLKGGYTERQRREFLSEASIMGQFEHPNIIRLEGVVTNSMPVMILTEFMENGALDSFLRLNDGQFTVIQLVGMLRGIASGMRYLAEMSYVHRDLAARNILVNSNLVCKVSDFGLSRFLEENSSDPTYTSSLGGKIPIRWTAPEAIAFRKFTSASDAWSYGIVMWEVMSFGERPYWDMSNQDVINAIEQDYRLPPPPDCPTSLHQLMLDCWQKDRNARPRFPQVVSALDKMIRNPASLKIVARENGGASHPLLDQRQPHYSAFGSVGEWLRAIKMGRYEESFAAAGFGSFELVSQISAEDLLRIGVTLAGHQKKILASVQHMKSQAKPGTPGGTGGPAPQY
Conditions: read-out: % Activity Remaining.
From the text: as §1

For assay [5], the system named is AMPK (hum). Conditions: 1 µM.
From the text: as §1

Assay [6] addresses RSK1 (Homo sapiens, UniProt Q15418). As to conditions: read-out: % Activity Remaining.
From the text: as §1

Molecules are shown by their SMILES. Like-named read-outs stand apart in the source and are kept apart here.

Chain of RSK1 (Q15418 whole entry): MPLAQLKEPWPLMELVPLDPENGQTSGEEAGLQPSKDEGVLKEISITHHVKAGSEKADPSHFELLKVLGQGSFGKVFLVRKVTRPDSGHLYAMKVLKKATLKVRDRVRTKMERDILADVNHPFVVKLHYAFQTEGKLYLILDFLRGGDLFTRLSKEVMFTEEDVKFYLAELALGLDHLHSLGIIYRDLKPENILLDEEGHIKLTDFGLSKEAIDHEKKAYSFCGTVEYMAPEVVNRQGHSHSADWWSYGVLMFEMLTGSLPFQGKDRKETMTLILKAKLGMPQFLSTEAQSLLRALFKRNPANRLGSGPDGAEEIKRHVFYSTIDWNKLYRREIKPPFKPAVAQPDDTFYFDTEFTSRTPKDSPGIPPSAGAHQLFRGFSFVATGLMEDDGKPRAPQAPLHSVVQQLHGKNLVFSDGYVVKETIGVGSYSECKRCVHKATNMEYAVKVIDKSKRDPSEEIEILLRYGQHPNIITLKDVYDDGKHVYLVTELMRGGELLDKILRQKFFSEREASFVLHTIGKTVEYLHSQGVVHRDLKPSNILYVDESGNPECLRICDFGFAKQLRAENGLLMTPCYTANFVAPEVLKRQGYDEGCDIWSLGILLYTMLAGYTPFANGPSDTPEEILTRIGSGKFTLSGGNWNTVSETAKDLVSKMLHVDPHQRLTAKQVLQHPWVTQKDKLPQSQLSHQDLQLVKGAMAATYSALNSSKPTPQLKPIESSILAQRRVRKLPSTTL

Turning to `COc1ccc(Cl)c(S(=O)(=O)Nc2ccc(-c3nc(OC[C@H]4CNCCO4)c4c(C)n[nH]c4n3)cc2)c1` [290-R, reference compound], the remaining activity (usually the signal under treatment as a percentage of the control signal) at 1 µM in assay [1] came to 105%; in assay [2] it was 91%; in assay [3], 98%; in assay [4], 103%; in assay [6], 7%. Moreover, the “% Activity Remaining” value in assay [5] was 15%.

As to `Cc1ccc(F)c(S(=O)(=O)Nc2ccc(-c3nc(OC[C@H]4CNCCO4)c4cn[nH]c4n3)cc2)c1` [308-R, reference compound], the remaining activity at 1 µM is 86% in assay [1]; 55% in assay [2]; 73% in assay [3]; 124% in assay [4]; 7% in assay [6]. Besides, in assay [5], the “% Activity Remaining” value is recorded as 78%.

On to `Cc1ccc(F)c(S(=O)(=O)Nc2ccc(-c3nc(OC[C@H]4CN(CCCCCCOCCOCCOCC(=O)N[C@H](C(=O)N5C[C@H](O)C[C@H]5C(=O)NCc5ccc(-c6scnc6C)cc5)C(C)(C)C)CCO4)c4cn[nH]c4n3)cc2)c1` [SGK3-PROTAC1], for which the remaining activity at 1 µM in assay [1] (1 µM) turned out to be 112%; in assay [2] (1 µM), 95%; in assay [3] (1 µM), 105%; in assay [4] (1 µM) it was 107%; in assay [6] (1 µM) it was 83%. Besides, in assay [5], the “% Activity Remaining” value was found to be 105%.

`Cc1ccc(F)c(S(=O)(=O)Nc2ccc(-c3nc(OC[C@H]4CN(CCCCCCOCCOCCOCC(=O)N[C@H](C(=O)N5C[C@@H](O)C[C@H]5C(=O)NCc5ccc(-c6scnc6C)cc5)C(C)(C)C)CCO4)c4cn[nH]c4n3)cc2)c1` [cisSGK3-PROTAC1]: the remaining activity at 1 µM in assay [1] (1 µM) amounted to 100%; in assay [2] (1 µM) it was 94%; in assay [3] (1 µM), 100%; in assay [4] (1 µM), 108%; in assay [6] (1 µM), 90%. Moreover, the “% Activity Remaining” value in assay [5] was determined as 108%.
